The assay concerns the target Cystathionine gamma-lyase (Homo sapiens, UniProt P32929).

Sequence of Cystathionine gamma-lyase (P32929 whole entry): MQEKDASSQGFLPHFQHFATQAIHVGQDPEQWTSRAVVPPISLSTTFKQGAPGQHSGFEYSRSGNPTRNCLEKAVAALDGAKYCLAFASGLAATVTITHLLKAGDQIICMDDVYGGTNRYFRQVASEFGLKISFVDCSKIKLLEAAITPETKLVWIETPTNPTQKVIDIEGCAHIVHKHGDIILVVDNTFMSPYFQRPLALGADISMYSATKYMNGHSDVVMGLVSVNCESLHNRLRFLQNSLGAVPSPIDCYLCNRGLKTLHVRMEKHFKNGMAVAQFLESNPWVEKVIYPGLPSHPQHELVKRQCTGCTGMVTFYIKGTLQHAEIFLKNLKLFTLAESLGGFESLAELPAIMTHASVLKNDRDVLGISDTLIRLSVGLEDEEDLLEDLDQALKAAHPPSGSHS

A word on the IC50: it is the concentration at which inhibition is half-maximal. The low end stands for greater potency, the high end for weaker potency. As for `N#CCC(N)C(=O)O` (configuration not stated), the IC50 was below 25 µM.
Then `C#CC[C@@H](N)C(=O)O`, with above 100 µM; and `C#CC[C@H](N)c1nc(C(F)(F)F)n[nH]1`, with above 100 µM; and `C#CC[C@H](N)c1noc(=O)[nH]1`, with below 25 µM.
As for `C#CC[C@H](N)c1ncn[nH]1`, the figure is below 25 µM.
As for `C#CCC(N)C(=O)O` (configuration not stated), the figure is below 25 µM.
As for `C#CC[C@H](N)c1nc(N)n[nH]1`, the 50% inhibitory concentration (IC50) was above 100 µM.

The values are drawn from ChEMBL document CHEMBL5726724, “Cystathionine-gamma-lyase (CSE) inhibitors” (2019).
